Measured values from patent publication US20110077270A1, “Compositions and Methods for Treating Ocular Inflammation with Lower Risk of Increased Intraocular Pressure” (priority 2009, published 2011).
Values joined by “and” are separate entries in the source; they are usually repeats but may differ in a detail not shown here. Identical values can stand only once. Like-named read-outs stand apart in the source and are kept apart here.

Columns and labels:
[1] = test system: PGE2 in the aqueous humor; assay: Prostaglandin E2 (PGE2) measurement in aqueous humor, rabbit paracentesis model; type: in vivo; settings: second paracentesis; for PGE2 level in aqueous humor, Mean: group mean; for PGE2 level in aqueous humor: individual eye
Experimental: (§1) Each rabbit was placed in a restraint device and tagged with the alphanumeric code. The formulations were instilled (50 μl) into the conjunctival sac of both eyes 180, 120, 90 and 30 min before the first paracentesis; then 15, 30, 90 min after the first paracentesis. To perform the first paracentesis the animals were anaesthetized by intravenous injection of 5 mg/kg Zoletil® (Virbac; 2.5 mg/kg tiletamine HCl and 2.5 mg/kg zolazepam HCl) and one drop of local anesthetic (Novesina®, Novartis) was administered to the eye. Anterior chamber paracentesis was performed with a 26 G needle attached to a tuberculin syringe; the needle was introduced into the anterior chamber through the cornea, taking care not to damage the tissues. Two hours after the first paracentesis, the animals were sacrificed with 0.4 ml Tanax® (Intervet International B.V.) and the second paracentesis was performed. About 100 μl of aqueous humor were removed at the second paracentesis. Aqueous humor was immediately split in four aliquots and stored at −80° C. until analysis. Then both eyes were enucleated and the iris-ciliary body was carefully excised, placed in polypropylene tubes, and stored at −80° C. until analysis.
For the quantitative determination of PGE2 in the aqueous humor we used the PGE2 Immunoassay kit (R&D Systems; Cat. No. KGE004; Lot. No. 240010). Eleven microliters or 16 μl of aqueous humor were diluted to 110 μl or 160 μl with the calibrator diluent solution provided with the kit. One hundred microliters of samples and of standards were load into a 96-well plate and recorded in a plate layout. Samples were treated following the assay procedure described in the kit. A microplate reader (GDV, Italy; model DV 990 B/V6) set at 450 nm (wavelength correction at 540 nm) was used for making the calibration and analyzing the samples.

[2] = test system: myocilin protein in CM of monkey TM cells; assay: Myocilin protein in conditioned media of monkey TM cells (Western blot); type: cell-based, rhesus monkeys (Macaca mulatta); settings: for EC50: nine monkey TM cell strains; for Efficacy ± SE (weighted average; %): estimated efficacy at 300 nM for inducing myocilin protein expression, normalized to DEX (100%), nine experiments (one per strain)
Experimental: For each study, up to nine TM cell strains, each derived from an individual monkey, were tested separately. Cells were thawed and seeded into 12- or 48-well clusters (Falcon, BD Biosciences; 150,000 and 30,000 cells/well, respectively) in proliferation medium. When cells were 75% to 90% confluent proliferation medium was replaced by a 5:4 mixture of HESFM and Dulbecco's MEM, respectively, supplemented with 10% FBS, with added taurine, ascorbic acid phosphate, glutathione, and antibiotic as for proliferation medium (above), and with 2.72 g/L glucose and 1.72 g/L fructose. At confluence, the medium was changed to Dulbecco's MEM, containing 10% FBS^40, ascorbic acid phosphate, antibiotic, 2.72 g/L glucose and 1.72 g/L fructose. Cells were maintained as stable, confluent monolayers in this latter medium for 4 to 7 days before experimental treatments commenced.
All treatments, including media for vehicle control samples, contained a final DMSO concentration of 0.1% (v/v) across the concentration ranges selected. Treatments lasted 96 hours, with one exchange of medium on the third treatment day. The final 48-hr conditioned media (“CM”) samples were collected in their entirety (0.5 ml), centrifuged briefly to remove particulates, aliquoted, and stored at −20° C. until thawed for analysis.
Undiluted CM was combined with denaturing 4× sample buffer containing 2% SDS, and samples were loaded at equivalent protein content onto 4-20% Tris-HCl polyacrylamide gels (BioRad, Hercules, Calif.). After electrophoresis, proteins underwent wet transfer to […] nitrocellulose (BioRad) for immunoblotting. The filters were blocked with 5% (w/v) nonfat dry milk (BioRad) in Tris-buffered saline plus 0.02% (v/v) Tween-20 (“TBST”; Tween-20 from Calbiochem, San Diego, Calif.), and incubated with a 1:2000 dilution (from 200 μg/ml) of goat anti-recombinant human myocilin antibody (R&D Systems, Minneapolis, Minn.) in blocking buffer, overnight at 4° C. After washing in TBST, the filters were incubated with a 1:25,000 dilution (from 0.8 mg/ml) of horseradish peroxide-conjugated mouse anti-goat IgG (H+L) (Pierce Biotechnology, Rockford, Ill.) in blocking buffer, for 90 minutes at room temperature. After washing in TBST, the blots were developed in SuperSignal® West Dura Extended Duration Substrate (Pierce) for chemiluminescent detection. Bands corresponding to myocilin were digitally captured and stored using a FluorChem Imager (Alpha-Innotech, San Leandro, Calif.), with all blots receiving equal exposure/capture times. The imager system software was then used to calculate pixel density for equivalent rectangular areas incorporating the bands.
Data underwent Box-Cox transformations for one- or two-way analysis of variance (ANOVA), followed by the Tukey-Kramer test, using JMP software (SAS, Cary, N.C.). The specific transformations used for analyses are mentioned in the figure legends. For each set of triplicate samples from the individual monkey TM cell strains tested, Western blot densitometry values for myocilin protein detected in CM (as geometric means), and relative abundance of myocilin mRNA (as geometric means), were plotted as a function of drug concentrations. P-values less than 0.05 were considered statistically significant. Dose-response curve data were fitted to a re-parameterized four-parameter logistic equation using similar methodology to that previously described, and these equations permitted estimation of the EC50 values±95% confidence intervals, for each drug treatment.

[3] = test system: rabbit paracentesis model; assay: Pupillary diameter measurement, rabbit paracentesis model; type: in vivo; settings: individual eye; for Pupillary diameter T1: −180 min: 50 μl drops, basal; for Pupillary diameter T2: −5 min: 5 min before first paracentesis; for Pupillary diameter T3: +115 min: 5 min before second paracentesis; for Pupillary diameter Δ(T3 − T1): +115 min minus −180 min
Experimental: as §1
The pupillary diameter of both eyes was measured with a Castroviejo caliper 180 min and 5 min before the first paracentesis and 5 min before the second paracentesis.

monkey TM cells = assay: Cell metabolic activity (resazurin reduction) assay in monkey TM cells; type: cell-based, rhesus monkeys (Macaca mulatta); settings: 3 to 300 nM, end of treatment period; results not shown
Experimental: A modification of previously described methods^40 was employed to evaluate cell metabolic activity, an index of cell viability. After collection of CM samples, cells were briefly rinsed in modified Hanks balanced salt solution containing Ca^++ and Mg^++ (“MHBSS”), and then 0.0025% (w/v) resazurin (Sigma) in MHBSS was added to sample wells. Plates were incubated (37° C., 5% CO2, 95% humidity) for 90 minutes, after which fluorescence (Excitation 560 nm, Emission 590 nm) was read (Victor 3V Multilabel Counter, Wallac, Turku, Finland). As a positive control for decreased cellular metabolic reduction of resazurin, in each plate an additional well of vehicle control-treated cells was preincubated with 0.06% hydrogen peroxide (Fisher, Atlanta, Ga.) in MHBSS.

[4] = Primates, expression of myocilin protein, weighted averages, read-out: EC50 ± SE
[5] = Primates, 96 hours treatment, read-out: EC50, myocilin protein expression
[6] = 0.1% topical formulation, listed as BOL
[7] = 0.5% topical formulation, listed as BOL
[8] = 1% topical formulation, listed as BOL

C[C@@H]1C[C@H]2[C@@H]3CCC4=CC(=O)C=C[C@]4(C)[C@@]3(F)[C@@H](O)C[C@]2(C)[C@@]1(O)C(=O)CO [Dex, dexamethasone, reference compound]
PGE2 level in aqueous humor, Mean ([1]; 0.1% topical formulation): 2.263 ng/mL
PGE2 level in aqueous humor ([1]; 0.1% topical formulation): 2.51 ng/ml and 2.32 ng/ml (2×) and 2.10 ng/ml and 3.03 ng/ml and 1.30 ng/ml
Myocilin protein level over control ([2]; 300 nM, one of the monkey TM cell strains, CM of second 48-hour period): 1233%
EC50 [2, 4]: 14.6 ± 2.65 nM
EC50 [2, 5]: 14.6 nM
Efficacy ± SE (weighted average; %) [2]: 100 ± 6.09%
Pupillary diameter T1: −180 min ([3]; 0.1% topical formulation): 6.0 mm and 7.0 mm (2×) and 5.5 mm (2×) and 6.5 mm (3×)
Pupillary diameter T2: −5 min ([3]; 0.1% topical formulation): 5.5 mm and 6.5 mm (3×) and 6.0 mm (2×) and 7.0 mm and 7.5 mm
Pupillary diameter T3: +115 min ([3]; 0.1% topical formulation): 5.5 mm (3×) and 6.0 mm (2×) and 4.5 mm and 5.0 mm and 6.5 mm
Pupillary diameter Δ(T3 − T1) ([3]; 0.1% topical formulation): −0.5 mm (3×) and −1.5 mm (2×) and 0.5 mm and 0.0 mm and −2.0 mm
Cell viability compared to vehicle controls (resazurin reduction) (monkey TM cells): nor did any drug treatments result in a loss of cell viability

Cc1ccc2c(NCC(O)(CC(C)(C)c3cc(F)cc4c3OCC4)C(F)(F)F)cccc2n1 (centres unmarked) [BOL-303242-X]
PGE2 level in aqueous humor, Mean ([1]; 0.1% topical formulation): 1.452 ng/mL
PGE2 level in aqueous humor [1, 6]: 1.62 ng/mL and 1.88 ng/mL and 2.15 ng/mL and 0.70 ng/mL and 1.34 ng/mL and 1.03 ng/mL
PGE2 level in aqueous humor, Mean ([1]; 0.5% topical formulation): 1.384 ng/mL
PGE2 level in aqueous humor [1, 7]: 2.31 ng/mL and 2.59 ng/mL and 0.53 ng/mL and 0.75 ng/mL and 0.80 ng/mL and 1.62 ng/mL and 1.09 ng/mL
PGE2 level in aqueous humor, Mean ([1]; 1% topical formulation): 2.168 ng/mL
PGE2 level in aqueous humor [1, 8]: 0.50 ng/mL and 1.87 ng/mL and 1.71 ng/mL and 4.04 ng/mL and 1.11 ng/mL and 3.78 ng/mL
Myocilin protein released by cultured monkey TM cells compared to DEX ([2]; 3 to 300 nM): significantly lower levels of myocilin protein
Emax ([2]; Primates, read-out: Maximal efficacy for myocilin protein accumulation, relative to that observed after DEX treatment, computed across all nine TM cell strains): ~50%
EC50 [2, 4]: 21 ± 4.28 nM
EC50 [2, 5]: 21 nM
Efficacy ± SE (weighted average; %) [2]: 53.12 ± 2.20%
Pupillary diameter T1: −180 min [3, 6]: 6.5 mm (4×) and 7.0 mm (3×) and 7.5 mm
Pupillary diameter T2: −5 min [3, 6]: 6.5 mm (3×) and 7.0 mm (4×) and 7.5 mm
Pupillary diameter T3: +115 min [3, 6]: 5.0 mm (2×) and 6.0 mm (3×) and 6.5 mm and 5.5 mm (2×)
Pupillary diameter Δ(T3 − T1) [3, 6]: −1.5 mm (4×) and −0.5 mm (2×) and −1.0 mm (2×)
Pupillary diameter T1: −180 min [3, 7]: 8.0 mm (3×) and 7.0 mm (3×) and 7.5 mm (2×)
Pupillary diameter T2: −5 min [3, 7]: 8.0 mm (3×) and 7.0 mm (4×) and 7.5 mm
Pupillary diameter T3: +115 min [3, 7]: 6.5 mm (4×) and 6.0 mm (2×) and 7.0 mm (2×)
Pupillary diameter Δ(T3 − T1) [3, 7]: −1.5 mm (2×) and −0.5 mm (2×) and −1.0 mm (4×)
Pupillary diameter T1: −180 min [3, 8]: 6.0 mm (3×) and 6.5 mm (5×)
Pupillary diameter T2: −5 min [3, 8]: 6.0 mm (2×) and 6.5 mm (4×) and 7.0 mm (2×)
Pupillary diameter T3: +115 min [3, 8]: 5.5 mm (2×) and 5.0 mm (4×) and 6.0 mm (2×)
Pupillary diameter Δ(T3 − T1) [3, 8]: −0.5 mm (3×) and −1.5 mm (2×) and −1.0 mm (3×)
Cell viability compared to vehicle controls (resazurin reduction) (monkey TM cells): nor did any drug treatments result in a loss of cell viability
